Data published in patent US7622582B2, “Derivatives of 1-phenyl-benzofuro[3,2]pyridin-2(1H)-one” (Tibotec BVBA, priority 2004, dated 2009).

Test system: HIV
Experiment: Cellular assay: anti-viral activity in HIV-infected MT4 cells (MTT cell viability)
Type: cell-based
Details: Human immunodeficiency virus 1, 120 h, five days incubation, MTT readout, negative logarithm of EC50 (protection of 50% of cells from cytopathogenic effect)
Protocol: The compounds of the present invention were examined for anti-viral activity in a cellular assay, which was performed according to the following procedure.
HIV- or mock-infected MT4 cells were incubated for five days in the presence of various concentrations of the inhibitor. At the end of the incubation period, the replicating virus in the control cultures has killed all HIV-infected cells in the absence of any inhibitor. Cell viability was determined by measuring the concentration of MTT, a yellow, water soluble tetrazolium dye that is converted to a purple, water insoluble formazan in the mitochondria of living cells only. Upon solubilization of the resulting formazan crystals with isopropanol, the absorbance of the solution was monitored at 540 nm. The values correlate directly to the number of living cells remaining in the culture at the completion of the five day incubation. The inhibitory activity of the compound was monitored on the virus-infected cells and was expressed as EC50 and EC90. These values represent the amount of the compound required to protect 50% and 90%, respectively, of the cells from the cytopathogenic effect of the virus. The toxicity of the compound was measured on the mock-infected cells and was expressed as CC50, which represents the concentration of compound required to inhibit the growth of the cells by 50%. The selectivity index (SI) (ratio CC50/EC50) is an indication of the selectivity of the anti-HIV activity of the inhibitor. Wherever results are reported as e.g. pEC50 or pCC50 values, the result is expressed as the negative logarithm of the result expressed as EC50 or CC50 respectively.
Table 2 lists the pEC50 values obtained in this test for a number of compounds of the invention.

Compound	EC50 [µM]
Cc1c(C#N)c(=O)n(-c2ccc([N+](=O)[O-])cc2)c2c1oc1cccnc12 [Compound 3, 4-Methyl-1-(4-nitrophenyl)-2-oxo-1,2-dihydro-furo[3,2-b;4,5-b′]dipyridine-3-carbonitrile]	1.58
Cc1c(C#N)c(=O)n(-c2ccc([N+](=O)[O-])cc2)c2c1oc1cc(O)ccc12 [Compound 6, 7-Hydroxy-4-methyl-1-(4-nitrophenyl)-2-oxo-1,2-dihydro-benzo[4,5]furo[3,2-b]-pyridine-3-carbonitrile]	3.16
COc1ccc2c(c1)oc1c(C)c(C#N)c(=O)n(-c3ccc([N+](=O)[O-])cc3)c12 [Compound 5, 7-Methoxy-4-methyl-1-(4-nitrophenyl)-2-oxo-1,2-dihydro-benzo[4,5]furo[3,2-b]-pyridine-3-carbonitrile]	0.398
CC(=O)c1ccc(-n2c(=O)c(C)c(C#N)c3oc4ccccc4c32)cc1 [Compound 1, 1-(4-Acetyl-phenyl)-3-methyl-2-oxo-1,2-dihydro-benzo[4,5]furo[3,2-b]pyridine-4-carbonitrile]	2.51
